Measured values taken from USRE37534E1, “Pharmaceutical compositions” (BTG International Limited, priority 1982, dated 2002).

What was measured:
rat jejunal sac = assay: Permeation of everted rat jejunal sac by iron complexes; format: in vitro ADME; details: for Relative iron uptake, 15 minutes / Relative iron uptake, 60 minutes: relative to ferric chloride as 1
Text: Rats (male Sprague Dawley, 60 g) were killed and the jejunum removed, everted and cut into three segments (4 cm length). […] The contents of the sac were counted for ^59Fe and measured spectrophotometrically. […] The procedure described above was used to compare the uptake of iron from buffer containing differing molar proportions of maltol:iron.

[1] = In vivo 59Fe uptake after administration into the duodenum of the rat; details: 100 μg Fe into duodenum; for introduction of iron via the rat intestine (59Fe in organs), comparison: 1-6 hours, FIGS. 1-4
Description: Groups of rats (300-350 g) were anaesthetised with nembutal (0.25 ml) and then with ether. […] The abdominal well was then closed with a suture. […] In the case of the data for blood and sternum (bone marrow) the counts given are cpm/ml and cpm/g respectively, whilst in all other cases they are the total cpm counts.

human erythrocytes = assay: Permeation of iron complexes into human erythrocytes (59Fe distribution ratio); format: cell-based; details: 37° C.; for Distribution ratio (concentration in erythrocytes/concentration in medium): 1 hour, pH 7.4
Description: Following this period of incubation an aliquot of the erythrocyte/medium mixture was placed above a layer of silicone oil (ρ=1.06) and the erythrocytes separated by centrifugation through the oil. The ^59Fe levels associated with the erythrocytes and the incubation medium were then counted and presented as a distribution ratio (concentration in erythrocytes/concentration in medium).

[2] = Iron take-up in human subjects by whole body counting; format: in vivo; details: for level of take-up of iron by whole body counting: normal subject
Description: Capsules containing 3:1 iron(III) maltol, […] were prepared according to the procedure of Example 7^(1) with the modification that at 3:1 molar ratio of maltol:iron was used (no free maltol therefore being present in the capsules) and that a proportion of the ferric chloride used in the preparation of the iron maltol was radiolabelled as ^59Fe. The capsules each contained 10 mg of iron, this amount being labelled with 1 microcurie of ^59Fe, and were subjected to a single coating procedure.
The test involved two normal subjects, i.e. not suffering from iron deficiency, one of whom took a 10 mg dose of iron (one capsule) and the other whom took a 20 mg does of iron (two capsules). The capsule or capsules were taken after fasting overnight and fasting was then continued for a further 2 hours. The take-up of iron by the subjects was followed by means of whole body counting, using a calibrated body counter, reading being taken 4 to 8 hours after ingestion of the capsules to establish a base level and then after 7 and 14 days. Excretion of iron by the subjects was followed through the counting, in a large volume counter calibrated for iron, of daily urine samples over 3 days and daily stool samples over 10 days.

[3] = molecular target: bovine serum albmen (BSA) (Bos taurus, UniProt P02769); assay: Binding of complex to BSA (gel permeation column); details: as haemoglobin procedure, pH 7.4
Description: (§1) The ability of the iron complex of maltol to bind to haemoglobin is investigated by studying the elution profile of a ^59Fe label when a mixture of haemoglobin and the ^59Fe-labeled complex (at 1 mM concentration) in NaCl (130 mM) buffered to pH 7.4 by Tris hydrochloride is applied to a PH-10 column (Sephadex G-10 gel permeation column—Pharmacia).
The ability of the iron complex of maltol to bind to bovine serum albmen (BSA) is investigated through a similar procedure in which the complex is applied to a column with BSA rather than haemoglobin.

haemoglobin = haemoglobin (Homo sapiens, UniProt P68871+P69905); assay: Binding of 59Fe-labelled complex to haemoglobin (gel permeation column); details: 59Fe-labelled complex 1 mM, NaCl 130 mM, pH 7.4
Description: as §1

[4] = In vivo 59Fe blood kinetics and tissue distribution in the cat, intravenous; details: for Net ^59Fe content (cpm/g) / Net total ^59Fe content (cpm): 2 μCi given, figures adjusted to 2.2×10^6 cpm
Description: Body temperature was monitored with a rectal thermometer.
The iron maltol complex (100 μg Fe) alone (3:1 molar ratio of maltol:iron) and together with a large excess of maltol (40:1 molar ratio of maltol:iron) was injected intravenously in separate experiments and 0.25 ml samples of blood were taken in intervals. The apparent volume of distribution of the compound was calculated by extrapolation of the log-linear blood concentration curve to zero.
The amount of ^59Fe administration in this experiment was 4 μCi or 2.2×10^6 cpm.

[5] = Affinity / stability constant of ligand for iron(III); format: physicochemical
Text: (§2) In order to solubilise iron(III) hydroxide, log Ksol must be greater than 0. The value of Ksol for maltol is 0.8 and this is also sufficiently large to prevent appreciable competition from phytate, phosphate, thiols and other potential ligands likely to occur in the intestinal lumen.

[6] = in vivo
Description: (§3) In each animal the trachea was cannulated to maintain a clear airway and to allow positive pressure artificial respiration if necessary. The left femoral vien was cannulated for the intravenous administration of drugs and physiological saline solution. Arterial blood pressure was monitored by a Washington pressure transducer through a cannula inserted into the femoral artery of the right hind leg. Arterial blood samples were taken at appropriate intervals from a short cannula inserted into an external carotid artery. Body temperature was monitored with a rectal thermometer. Each animal was given heparin (1000 iu/kg) as anticoagulant and additional small amounts of pentobarbitone sodium if needed to maintain a satisfactory level of anaesthesia.
(§4) If those animals where the iron compounds were to be administered into the duodenum, a mid-line incision was made in the abdomen to reveal the intestines. A cannula was then inserted through a small cut such that its tip rested approximately 5 cm below the opening of the bile duct. The cannula was then sutured in place and the abdominal wall closed with stitches.
(§5) The iron maltol complex (100 μg Fe) was also administered to the duodenum of the cat in the presence of a 40 fold excess of maltol followed by 5 ml of 150 ml tris hydrochloride buffer (pH 7.4).

[7] = In vivo 59Fe blood level and tissue distribution in the cat, per duodenum; details: 2.65×10^6 cpm administered
Description: as §3, §4, §5

[8] = Partition coefficient Kpart n-octanol / Tris hydrochloride; format: physicochemical; details: pH 7.4
Description: An indication of the properties of a compound in this respect is provided by the value of the partition coefficient (Kpart) obtained on partition between n-octanol and Tris hydrochloride (20 mM, pH 7.4; Tris representing 2-amino-2-hydroxymethylpropane 1,3-diol) at 20° C. and expressed as the ratio (concentration of compound in organic phase)/(concentration of compound in aqueous phase).
The partition coefficient Kpart (concentration in n-octanol/concentration in aqueous phase) between n-octanol and Tris hydrochloride (20 mM, pH 7.4) of maltol and of its 3:1 iron complex is measured at 10^−4 M by spectrophotometry. Acid washed glassware is used throughout and, following mixing for 1 minute, the aqueous/n-octanol mixture is […] at 1000 g for 30 seconds. The two resulting phases are separated for a concentration determination by spectrophotometry on each. For maltol, the range 220-340 nm is used for the concentration determination whilst for the complex the range 340-640 nm is used.

[9] = Ksol (ability to solubilise iron(III) hydroxide); format: physicochemical
Text: as §2

haemoglobin, sequence (P69905 2-142 limits assumed): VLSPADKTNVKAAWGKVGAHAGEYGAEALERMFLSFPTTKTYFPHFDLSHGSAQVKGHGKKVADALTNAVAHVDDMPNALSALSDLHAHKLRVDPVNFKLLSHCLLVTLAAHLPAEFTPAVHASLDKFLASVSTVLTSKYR
haemoglobin, sequence (P68871 2-147 limits assumed): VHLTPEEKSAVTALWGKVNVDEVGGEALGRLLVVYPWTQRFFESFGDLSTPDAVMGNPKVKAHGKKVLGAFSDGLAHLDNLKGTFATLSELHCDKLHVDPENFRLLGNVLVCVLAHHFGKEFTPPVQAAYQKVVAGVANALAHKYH
bovine serum albmen (BSA), sequence (P02769 25-607): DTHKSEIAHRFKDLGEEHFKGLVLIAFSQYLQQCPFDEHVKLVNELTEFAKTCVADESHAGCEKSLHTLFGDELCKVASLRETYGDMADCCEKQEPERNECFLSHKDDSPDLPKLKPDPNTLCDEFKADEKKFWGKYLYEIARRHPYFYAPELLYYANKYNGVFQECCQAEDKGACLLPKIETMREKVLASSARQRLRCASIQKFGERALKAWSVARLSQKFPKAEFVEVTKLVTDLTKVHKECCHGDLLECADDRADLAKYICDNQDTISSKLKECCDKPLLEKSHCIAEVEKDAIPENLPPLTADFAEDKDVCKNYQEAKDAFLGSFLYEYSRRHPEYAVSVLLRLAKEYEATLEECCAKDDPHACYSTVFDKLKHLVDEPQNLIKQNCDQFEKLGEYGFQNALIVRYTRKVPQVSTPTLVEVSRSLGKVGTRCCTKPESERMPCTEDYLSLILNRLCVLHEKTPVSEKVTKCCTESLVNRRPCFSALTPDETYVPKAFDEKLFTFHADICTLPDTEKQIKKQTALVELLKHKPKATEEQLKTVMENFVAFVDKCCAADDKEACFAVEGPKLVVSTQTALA

[Cl][Fe]([Cl])[Cl] [FeCl3]
Relative iron uptake, 15 minutes (rat jejunal sac): 1 | Relative iron uptake, 60 minutes (rat jejunal sac): 1

O=C([O-])/C=C/C(=O)[O-].[Fe+2] [Fe^II fumarate]
Relative iron uptake, 15 minutes (rat jejunal sac): 4.0 | Relative iron uptake, 60 minutes (rat jejunal sac): 1.8

O=C([O-])[C@H](O)[C@@H](O)[C@H](O)[C@H](O)CO.O=C([O-])[C@H](O)[C@@H](O)[C@H](O)[C@H](O)CO.[Fe+2] [Fe^II gluconate]
introduction of iron via the rat intestine (59Fe in organs), comparison [1]: more effective than the sulphate or the EDTA complex | Relative iron uptake, 15 minutes (rat jejunal sac): 1.6 | Relative iron uptake, 60 minutes (rat jejunal sac): 0.8 | Distribution ratio (concentration in erythrocytes/concentration in medium) (human erythrocytes; 1 mM): 0.08

O=C([O-])CCC(=O)[O-].[Fe+2] [Fe^II succinate]
Relative iron uptake, 15 minutes (rat jejunal sac): 2.0 | Relative iron uptake, 60 minutes (rat jejunal sac): 1.0

O=S(=O)([O-])[O-].[Fe+2] [Fe^II sulphate]
Relative iron uptake, 15 minutes (rat jejunal sac): 2.4 | Relative iron uptake, 60 minutes (rat jejunal sac): 1.4 | level of take-up of iron by whole body counting ([2]; 10 mg dose, at 7 days): 13% | level of take-up of iron by whole body counting ([2]; 20 mg dose, at 7 days): 6%

Cc1occc(=O)c1[O-].Cc1occc(=O)c1[O-].Cc1occc(=O)c1[O-].[Fe+3] [Fe^III (maltol)3]
ability to bind to BSA [3]: little ability to bind to BSA | introduction of iron via the rat intestine (59Fe in organs), comparison ([1]; listed as maltol complex): more efficient than iron(III) EDTA | introduction of iron via the rat intestine (59Fe in organs), comparison ([1]; listed as neutral 3:1 maltol:iron(III) complex): markedly superior to iron(II) sulphate | binding of the complex to haemoglobin (haemoglobin): no evidence if found for binding | 59Fe directed to the bone marrow (bulk, inferred) ([4]; in vivo, iv): approximately 90% | dose located in combined tissue of heart, liver and spleen ([4]; in vivo, iv): approximately 10% | dose located in the urine ([4]; in vivo, iv): less than 0.2% | thermodynamic stability constant ([5]; 3:1 complex): 30 | concentration dependence of uptake (rat jejunal sac; 0.5 to 10 mM, uptake increased linearly): does not show saturation kinetics | Iron uptake (n mole) (rat jejunal sac; iron transferred into serosal contents of sac, basal uptake subtracted, by maltol/iron molar ratio): 30.0 n mole | time course of uptake (rat jejunal sac; jejunal sac, up to 90 minutes): linear for a period 90 minutes | Relative iron uptake, 15 minutes (rat jejunal sac): 40 | Relative iron uptake, 60 minutes (rat jejunal sac): 5.8 | Distribution ratio (concentration in erythrocytes/concentration in medium) (human erythrocytes; 3 mM): 1.60 | time for uptake to reach equilibrium (human erythrocytes; erythrocytes): about 15 minutes | loss of iron in the urine ([2]; daily urine samples over 3 days): essentially zero loss of iron | level of take-up of iron by whole body counting ([2]; 10 mg dose of iron, oral capsule, 14 day figure): 19% | level of take-up of iron by whole body counting ([2]; 20 mg dose of iron, oral capsules, 14 day figure): 11%

O=C([O-])CN(CCN(CC(=O)[O-])CC(=O)O)CC(=O)[O-].[Fe+3] [Fe^III EDTA]
levels of 59Fe in the intestine wall and blood ([1]; FIG. 3): extremely low | plasma levels of radioactivity [6]: hardly exceeded the background level | Net ^59Fe content (cpm/g) ([4]; Heart, i.v.): 209 cpm/g | Net total ^59Fe content (cpm) ([4]; Heart, i.v.): 3,248 cpm | Net ^59Fe content (cpm/g) ([4]; Kidney, i.v.): 1,134 cpm/g | Net total ^59Fe content (cpm) ([4]; Kidney, i.v.): 21,770 cpm | Net ^59Fe content (cpm/g) ([4]; Liver, i.v.): 261 cpm/g | Net total ^59Fe content (cpm) ([4]; Liver, i.v.): 19,600 cpm | Net ^59Fe content (cpm/g) ([4]; Skeletal muscle, i.v.): 95 cpm/g | Net ^59Fe content (cpm/g) ([4]; Spleen, i.v.): 162 cpm/g | Net total ^59Fe content (cpm) ([4]; Spleen, i.v.): 1,814 cpm | Net ^59Fe content (cpm/g) ([4]; Sternum (bone marrow), i.v.): 1,164 cpm/g | Net total ^59Fe content (cpm) ([4]; Urine (19 ml), i.v.): 1,180,900 cpm | Net ^59Fe content (cpm/g) ([4]; Urine (19 ml, 2 ml sample), i.v.): 62,156 cpm/g | rate constant of the elimination from the blood, linear phase of the regression ([4]; i.v.): 0.023 min⁻¹ | dose located in the urine ([4]; i.v., end of experiment): over 50% | Net ^59Fe content (cpm/g) ([7]; Heart): 188 cpm/g | Net total ^59Fe content (cpm) ([7]; Heart): 2,878 cpm | Net ^59Fe content (cpm/g) ([7]; Kidney): 1,762 cpm/g | Net total ^59Fe content (cpm) ([7]; Kidney): 19,913 cpm | Net ^59Fe content (cpm/g) ([7]; Liver): 499 cpm/g | Net total ^59Fe content (cpm) ([7]; Liver): 29,574 cpm | Net ^59Fe content (cpm/g) ([7]; Skeletal muscle): 117 cpm/g | Net ^59Fe content (cpm/g) ([7]; Spleen): 200 cpm/g | Net total ^59Fe content (cpm) ([7]; Spleen): 880 cpm | Net ^59Fe content (cpm/g) ([7]; Sternum (bone marrow)): 917 cpm/g | Net ^59Fe content (cpm/g) ([7]; Urine (5 ml sample)): 36,306 cpm/g | Net total ^59Fe content (cpm) ([7]; Urine (15 ml)): 544,596 cpm

Cc1occc(=O)c1O [maltol, 3-hydroxy-2-methyl-4-pyrone]
logD [8]: -0.18 | log β3 (affinity for iron) ([5]; ligand maltol, iron): 30 | Ksol ([9]; ligand, log Ksol must be greater than 0 to solubilise iron(III) hydroxide): 0.8

Fe^III ascorbate
Relative iron uptake, 15 minutes (rat jejunal sac): 0.4 | Relative iron uptake, 60 minutes (rat jejunal sac): 0.8 | Distribution ratio (concentration in erythrocytes/concentration in medium) (human erythrocytes; 1 mM): 0.12

Fe^III citrate
Relative iron uptake, 15 minutes (rat jejunal sac): 2.0 | Relative iron uptake, 60 minutes (rat jejunal sac): 1.8 | Distribution ratio (concentration in erythrocytes/concentration in medium) (human erythrocytes; 1 mM): 0.05

apotransferrin: iron-free transferrin, reference for log Ksol
log Ksol [9]: 6.0
